Experimental findings from patent US11332467B2, “Solid state forms of palbociclib dimesylate” (PLANTEX LTD., priority 2016, dated 2022) are described below.

The data set is described as follows: Specific surface area (SSA), BET nitrogen adsorption. In kind it is physicochemical. The note with it: 7 point BET in the range 0.05-0.20 P/Po, triplicate determination, Palbociclib Form A obtained by Example 6. The procedure:
Specific Surface Area (SSA) Method
SSA measurement based on BET-nitrogen adsorption were carried out using a Micromeritics TriStar II Plus 3030 specific surface area analyzer together with Micromeritics VacPrep 061 degassing station.
Software version: Microactive for TriStar II Plus v 2.03
Sample tube: ½″ round bottom cell with glass filler rods
Sample masses*: Approximately % full cell
Sample preparation: VacPrep 061, nitrogen stream
Out gassing conditions: 16 hrs at 25° C. under vacuum
Isothermal collection points: 11 point BET in the range 0.05-0.30 P/Po
Isothermal data analysis range: 7 point BET in the range 0.05-0.20 P/Po
Outgas test duration: 180 s
Equilibration interval: 10 s
Equilibration timeout: 600 s
Calculations and Reporting: The specific surface area was reported in the range 0.05-0.20 P/Po using 7 point BET from a triplicate determination.

As for `CC(=O)c1c(C)c2cnc(Nc3ccc(N4CCNCC4)cn3)nc2n(C2CCCC2)c1=O` [Palbociclib, 6-Acetyl-8-cyclopentyl-5-methyl-2-[[5-(1-piperazinyl)-2-pyridinyl]amino]pyrido[2,3-d]pyrimidin-7(8H)-one], the “SSA (specific surface area)” value is 4.9 m^2/g.
